According to the NIST ThermoML archive (doi:10.1016/j.fluid.2019.05.006):
Numbers after ± are expanded uncertainties.

Conditions: 101.33 kPa, Liquid, Falling or rolling sphere viscometry

- viscosity (308.15 K): 84.3 ± 1.6 mPa·s
- viscosity (318.15 K): 29.4 ± 0.7 mPa·s
- viscosity (328.15 K): 14.3 ± 0.6 mPa·s
- viscosity (338.15 K): 7.2 ± 0.3 mPa·s
SMILES: C[N+](C)(C)CCO.NCC(=O)[O-] [2-hydroxy-N,N,N-trimethylethanaminium glycinate]
